6 molecules from patent EP0908457B1, “3-(1,2-benzisothiazol- and isoxazol-5-Y1)-2,4(1H,3H)-pyrimidinedione or thione and 3-(1,2-benzisothiazol- and isoxazol-5-y1)-4(3H)-pyrimidinone or thione herbicidal agents” (BASF AKTIENGESELLSCHAFT, priority 1997, dated 1999) can be followed below.

The structures appear in SMILES notation.

Series [1] deals with Echinochloa oryzoides (Ard.) Fritsch. Briefly: Preemergence weed control under flooded paddy conditions, ECHORC (Watergrass (Calif.)). Also: meaning of each grade not given here. The class given is in vivo. Conditions: preemergence, flooded paddy, rated three to four weeks after treatment.
A further series deals with Cyperus iria. In words: Preemergence weed control under flooded paddy conditions, CYPIR (Rice Flatsedge). Also: meaning of each grade not given here. The format is in vivo. The following applies: preemergence, flooded paddy, rated three to four weeks after treatment.
Series [2] deals with Cyperus serotinus, Rottb. Briefly: Preemergence weed control under flooded paddy conditions, CYPSE (Flatsedge). Also: meaning of each grade not given here. The following applies: preemergence, rated three to four weeks after treatment. The class given is in vivo.
For series [3], the system named is Monochoria vaginalis, Presl. Briefly: Preemergence weed control under flooded paddy conditions, MOOVA (Monochoria). Also: meaning of each grade not given here. The format is in vivo. The following applies: preemergence, flooded paddy, rated three to four weeks after treatment.
A further series deals with Sagittaria pygmaea, L. In words: Preemergence weed control under flooded paddy conditions, SAGPY (Arrowhead (Pygmaea)). Also: meaning of each grade not given here. The format is in vivo. Conditions: preemergence, flooded paddy, rated three to four weeks after treatment.
The subject of series [4] is Oryza sativa, (L.) Tebonnet. Briefly: Rice tolerance to post-transplant applications under flooded paddy conditions (Example 187), ORYSAT (Rice, Tebonnet). The following applies: rated three to four weeks after treatment.

Turning to `Cc1ccc(O)c(-c2noc3ccc(-n4c(=O)cc(C(F)(F)F)n(C)c4=O)c(Cl)c23)c1` [Example 41, 3-[4-Chloro-3-(6-hydroxy-m-tolyl)-1,2-benzisoxazol-5-yl]-1-methyl-6-(trifluoromethyl)-2,4(1H,3H)-pyrimidinedione], the “herbicidal effect rating, ECHORC” value was 0.0 in series [1] (0.0313 kg/ha), 0.0 in series [1] (0.0625 kg/ha), 2.0 in series [1] (0.1250 kg/ha) and 6.0 in series [1] (0.2500 kg/ha). The “herbicidal effect rating, CYPIR” value with Cyperus iria (0.0313 kg/ha) came out at 0.0; in the series with Cyperus iria (0.0625 kg/ha), 0.0; with Cyperus iria (0.1250 kg/ha) it was 1.0; in the series on Cyperus iria (0.2500 kg/ha), 2.0. Also, the “herbicidal effect rating, CYPSE” value in series [2] (0.0313 kg/ha), in series [2] (0.0625 kg/ha), in series [2] (0.1250 kg/ha) and in series [2] (0.2500 kg/ha) was 0.0 throughout. Further, the “herbicidal effect rating, MOOVA” value in series [3] (0.0313 kg/ha) came out at 0.0; in series [3] (0.0625 kg/ha), 2.0; in series [3] (0.1250 kg/ha), 4.0; in series [3] (0.2500 kg/ha), 9.0. The “herbicidal effect rating, SAGPY” value is 0.0 in the series with Sagittaria pygmaea, L. (0.0313 kg/ha); 0.0 in the series on Sagittaria pygmaea, L. (0.0625 kg/ha); 0.0 with Sagittaria pygmaea, L. (0.1250 kg/ha); 0.0 in the series on Sagittaria pygmaea, L. (0.2500 kg/ha). Moreover, the “herbicidal effect rating, ORYSAT (rice tolerance)” value (shortened to “herbicidal effect rating, ORYSAT”) in series [4] (0.0313 kg/ha), in series [4] (0.0625 kg/ha), in series [4] (0.1250 kg/ha) and in series [4] (0.2500 kg/ha) was 0.0 in each case.
`COc1noc2ccc(-n3c(=O)cc(C(F)(F)F)n(C)c3=O)cc12` [Example 42, 3-(3-Methoxy-1,2-benzisoxazol-5-yl)-1-methyl-6-(trifluoromethyl)-2,4(1H,3H)-pyrimidinedione]: the “herbicidal effect rating, ECHORC” value in series [1] (0.0313 kg/ha), in series [1] (0.0625 kg/ha), in series [1] (0.1250 kg/ha) and in series [1] (0.2500 kg/ha) was 0.0 in each case. The “herbicidal effect rating, CYPIR” value in the series with Cyperus iria (0.0313 kg/ha), with Cyperus iria (0.0625 kg/ha), in the series with Cyperus iria (0.1250 kg/ha) and in the series on Cyperus iria (0.2500 kg/ha) was 0.0 in each case. The “herbicidal effect rating, CYPSE” value in series [2] (0.0313 kg/ha), in series [2] (0.0625 kg/ha), in series [2] (0.1250 kg/ha) and in series [2] (0.2500 kg/ha) was 0.0 each time. Besides, the “herbicidal effect rating, MOOVA” value in series [3] (0.0313 kg/ha), in series [3] (0.0625 kg/ha), in series [3] (0.1250 kg/ha) and in series [3] (0.2500 kg/ha) was 0.0 each time. Moreover, the “herbicidal effect rating, SAGPY” value is on record as 0.0 in the series with Sagittaria pygmaea, L. (0.0313 kg/ha); 0.0 in the series with Sagittaria pygmaea, L. (0.0625 kg/ha); 0.0 with Sagittaria pygmaea, L. (0.1250 kg/ha); 0.0 in the series with Sagittaria pygmaea, L. (0.2500 kg/ha). Moreover, the “herbicidal effect rating, ORYSAT” value in series [4] (0.0313 kg/ha), in series [4] (0.0625 kg/ha), in series [4] (0.1250 kg/ha) and in series [4] (0.2500 kg/ha) was 0.0 throughout.
For the molecule `COc1ccccc1Oc1noc2ccc(-n3c(=O)cc(C(F)(F)F)n(C)c3=O)cc12` [Example 43, 3-[3-(o-Methoxyphenoxy)-1,2-benzisoxazol-5-yl]-1-methyl-6-(trifluoromethyl)-2,4(1H,3H)-pyrimidinedione], the “herbicidal effect rating, ECHORC” value amounted to 0.0 in series [1] (0.0313 kg/ha), 0.0 in series [1] (0.0625 kg/ha), 2.0 in series [1] (0.1250 kg/ha) and 8.0 in series [1] (0.2500 kg/ha). Further, the “herbicidal effect rating, CYPIR” value in the series with Cyperus iria (0.0313 kg/ha), in the series on Cyperus iria (0.0625 kg/ha), with Cyperus iria (0.1250 kg/ha) and in the series on Cyperus iria (0.2500 kg/ha) was 0.0 throughout. Besides, the “herbicidal effect rating, CYPSE” value in series [2] (0.0313 kg/ha), in series [2] (0.0625 kg/ha), in series [2] (0.1250 kg/ha) and in series [2] (0.2500 kg/ha) was 0.0 in each case. Further, the “herbicidal effect rating, MOOVA” value in series [3] (0.0313 kg/ha) turned out to be 6.0; in series [3] (0.0625 kg/ha), 9.0; in series [3] (0.1250 kg/ha), 9.0; in series [3] (0.2500 kg/ha), 9.0. Besides, the “herbicidal effect rating, SAGPY” value worked out at 0.0 with Sagittaria pygmaea, L. (0.0313 kg/ha); 0.0 in the series on Sagittaria pygmaea, L. (0.0625 kg/ha); 0.0 in the series with Sagittaria pygmaea, L. (0.1250 kg/ha); 0.0 in the series on Sagittaria pygmaea, L. (0.2500 kg/ha). The “herbicidal effect rating, ORYSAT” value in series [4] (0.0313 kg/ha) came to 1.0; in series [4] (0.0625 kg/ha), 2.0; in series [4] (0.1250 kg/ha), 3.0; in series [4] (0.2500 kg/ha) it was 3.0.
Regarding `CCc1ccc(OC)c(-c2nsc3ccc(-n4c(=O)cc(C(F)(F)F)n(C)c4=O)cc23)c1` [Example 45, 3-[3-(5-Ethyl-2-methoxyphenyl)-1,2-benzisothiazol-5-yl]-1-methyl-6-(trifluoromethyl)-2,4(1H,3H)-pyrimidinedione], the “herbicidal effect rating, ECHORC” value in series [1] (0.0313 kg/ha), in series [1] (0.0625 kg/ha), in series [1] (0.1250 kg/ha) and in series [1] (0.2500 kg/ha) was 9.0 throughout. In addition, the “herbicidal effect rating, CYPIR” value in the series with Cyperus iria (0.0313 kg/ha) is 6.0; in the series with Cyperus iria (0.0625 kg/ha), 9.0; in the series on Cyperus iria (0.1250 kg/ha), 9.0; with Cyperus iria (0.2500 kg/ha), 9.0. The “herbicidal effect rating, CYPSE” value in series [2] (0.0625 kg/ha) worked out at 2.0; in series [2] (0.1250 kg/ha) it was 9.0; in series [2] (0.2500 kg/ha) it was 9.0. Further, the “herbicidal effect rating, MOOVA” value in series [3] (0.0313 kg/ha), in series [3] (0.0625 kg/ha), in series [3] (0.1250 kg/ha) and in series [3] (0.2500 kg/ha) was 9.0 each time. Moreover, the “herbicidal effect rating, SAGPY” value turned out to be 0.0 in the series on Sagittaria pygmaea, L. (0.0313 kg/ha); 0.0 in the series on Sagittaria pygmaea, L. (0.0625 kg/ha); 4.0 in the series with Sagittaria pygmaea, L. (0.1250 kg/ha); 6.0 in the series on Sagittaria pygmaea, L. (0.2500 kg/ha). The “herbicidal effect rating, ORYSAT” value in series [4] (0.0313 kg/ha) was 2.0; in series [4] (0.0625 kg/ha), 2.0; in series [4] (0.1250 kg/ha), 3.0; in series [4] (0.2500 kg/ha) it was 3.0.
In the case of `COc1ccc(C(C)C)cc1-c1nsc2ccc(-n3c(=O)cc(C(F)(F)F)n(C)c3=O)cc12` [Example 46, 3-[3-(5-Isopropyl-2-methoxyphenyl)-1,2-benzisothiazol-5-yl]-1-methyl-6-(trifluoromethyl)-2,4(1H,3H)-pyrimidinedione], the “herbicidal effect rating, ECHORC” value in series [1] (0.0313 kg/ha), in series [1] (0.0625 kg/ha), in series [1] (0.1250 kg/ha) and in series [1] (0.2500 kg/ha) was 9.0 each time. For the same molecule, the “herbicidal effect rating, CYPIR” value turned out to be 2.0 with Cyperus iria (0.0313 kg/ha), 6.0 with Cyperus iria (0.0625 kg/ha), 9.0 in the series on Cyperus iria (0.1250 kg/ha) and 9.0 with Cyperus iria (0.2500 kg/ha). In addition, the “herbicidal effect rating, CYPSE” value in series [2] (0.0313 kg/ha) was 0.0; in series [2] (0.0625 kg/ha), 0.0; in series [2] (0.2500 kg/ha), 2.0. The “herbicidal effect rating, MOOVA” value in series [3] (0.0313 kg/ha), in series [3] (0.0625 kg/ha), in series [3] (0.1250 kg/ha) and in series [3] (0.2500 kg/ha) was 9.0 in each case. In addition, the “herbicidal effect rating, SAGPY” value in the series on Sagittaria pygmaea, L. (0.0313 kg/ha) is given as 0.0; in the series on Sagittaria pygmaea, L. (0.0625 kg/ha), 0.0; in the series with Sagittaria pygmaea, L. (0.1250 kg/ha), 2.0; with Sagittaria pygmaea, L. (0.2500 kg/ha) it was 7.0. For the same molecule, the “herbicidal effect rating, ORYSAT” value in series [4] (0.0313 kg/ha) came to 1.0; in series [4] (0.0625 kg/ha), 1.0; in series [4] (0.1250 kg/ha), 2.0; in series [4] (0.2500 kg/ha), 3.0.
Turning to `COC(=O)C(C)Oc1ccccc1Oc1noc2ccc(-n3c(=O)cc(C(F)(F)F)n(C)c3=O)cc12` (stereo not shown) [Example 47, Methyl 2-{o-{{5-[3,6-dihydro-3-methyl-2,6-dioxo-4-(trifluoromethyl)-1(2H)-pyrimidinyl]-1,2-benzisoxazol-3-yl}oxy}phenoxy}propionate], the “herbicidal effect rating, ECHORC” value in series [1] (0.0313 kg/ha) is listed as 0.0; in series [1] (0.0625 kg/ha) it was 1.5; in series [1] (0.1250 kg/ha), 3.5; in series [1] (0.2500 kg/ha), 5.0. For the same molecule, the “herbicidal effect rating, CYPIR” value in the series with Cyperus iria (0.0313 kg/ha) is 0.0; with Cyperus iria (0.0625 kg/ha) it was 0.0; with Cyperus iria (0.1250 kg/ha) it was 0.0; in the series on Cyperus iria (0.2500 kg/ha), 1.0. Moreover, the “herbicidal effect rating, CYPSE” value in series [2] (0.0313 kg/ha) is reported as 0.0; in series [2] (0.0625 kg/ha), 0.0; in series [2] (0.1250 kg/ha), 1.0; in series [2] (0.2500 kg/ha), 2.0. Also, the “herbicidal effect rating, MOOVA” value is 4.5 in series [3] (0.0313 kg/ha), 4.5 in series [3] (0.0625 kg/ha), 5.5 in series [3] (0.1250 kg/ha) and 9.0 in series [3] (0.2500 kg/ha). In addition, the “herbicidal effect rating, SAGPY” value is 0.0 with Sagittaria pygmaea, L. (0.0313 kg/ha); 0.0 in the series with Sagittaria pygmaea, L. (0.0625 kg/ha); 0.0 in the series with Sagittaria pygmaea, L. (0.1250 kg/ha); 0.0 in the series with Sagittaria pygmaea, L. (0.2500 kg/ha). The “herbicidal effect rating, ORYSAT” value in series [4] (0.0313 kg/ha) turned out to be 1.5; in series [4] (0.0625 kg/ha), 2.5; in series [4] (0.1250 kg/ha), 4.0; in series [4] (0.2500 kg/ha) it was 6.0.
